The assay relates to C57BL/6 mice. The assay can be described thus: animal or person. Particulars: Mus musculus, sc, 0.5 h, s.c. administration, 30 min, 55° C. water, read-out: ED50 (mg/kg) at 30 min on C57BL/6 mice in Warm-water Tail-flick Test. It is filed as in vivo. For orientation: Hot-plate and tail-flick tests time the reaction to a heat stimulus.
As to `CCOCC1(CCc2ccccc2)CCN(Cc2cnc(NC(C)=O)s2)CC1` [Compound 87, N-(5-((4-(ethoxymethyl)-4-phenethylpiperidin-1-yl)methyl)thiazol-2-yl)acetamide], the ED50 was over 10 mg/kg.
Then `CCOCC1(CCc2ccccc2)CCN(Cc2ccc(NCC(F)(F)F)cc2)CC1` [Compound 88, 4-((4-(ethoxymethyl)-4-phenethylpiperidin-1-yl)methyl)-N-(2,2,2-trifluoroethyl)aniline], with over 10 mg/kg; and `CCOCC1(CCc2ccccc2)CCN(Cc2ccc(C(N)=O)cc2)CC1` [Compound 89, 4-((4-(ethoxymethyl)-4-phenethylpiperidin-1-yl)methyl)benzamide], with over 10 mg/kg; and `CCOCC1(CCc2ccccc2)CCN(Cc2ccc(C(=O)NC)cc2)CC1` [Compound 90, 4-((4-(ethoxymethyl)-4-phenethylpiperidin-1-yl)methyl)-N-methylbenzamide], with over 10 mg/kg.
As to `CC(=O)Nc1ccc(CN2CCC(CCc3ccccc3)(C3CCO3)CC2)cc1` (centres unmarked) [Compound 91, N-(4-((4-(oxetan-2-yl)-4-phenethylpiperidin-1-yl)methyl)phenyl)acetamide], the ED50 was under 10 mg/kg.
`CCOCC1(CCc2ccccc2)CCN(Cc2ccc(NC(C)=O)cn2)CC1` [Compound 92, N-(6-((4-(ethoxymethyl)-4-phenethylpiperidin-1-yl)methyl)pyridin-3-yl)acetamide]: the ED50 was over 10 mg/kg.
As to `CCCOCC1(CCc2ccccc2)CCN(Cc2ccc(NC(C)=O)cc2)CC1` [Compound 93, N-(4-((4-phenethyl-4-(propoxy-methyl)piperidin-1-yl)methyl)phenyl)acetamide], the ED50 is over 10 mg/kg.
As for `CC(=O)Nc1ccc(CN2CCC(CCc3ccccc3)(C3CO3)CC2)cc1` (centres unmarked) [Compound 94, N-(4-((4-(oxiran-2-yl)-4-phenethylpiperidin-1-yl)methyl)phenyl)acetamide], the ED50 is over 10 mg/kg.
Regarding `CCOCC1(CCc2ccccc2)CCN(Cc2ccc(NC(=O)C(C)C)cc2)CC1` [Compound 95, N-(4-((4-(ethoxymethyl)-4-phenethylpiperidin-1-yl)methyl)phenyl)iso-butyramide], the ED50 was over 10 mg/kg.
The same measure for `CCOCC1(CCc2ccccc2)CCN(Cc2ccc(NC(C)=O)cc2)C1` (centres unmarked) [Compound 96, N-(4-((3-(ethoxymethyl)-3-phenethylpyrrolidin-1-yl)methyl)phenyl)acetamide]: under 10 mg/kg; for `CCOCC1(CCc2ccccc2)CN(Cc2ccc(NC(C)=O)cc2)C1.Cl` [Compound 97, N-(4-((3-(ethoxymethyl)-3-phenethylazetidin-1-yl)methyl)phenyl)acetamide HCl]: over 10 mg/kg.
The same measure for `CCOCC1(CCc2ccccc2)CCCN(Cc2ccc(NC(C)=O)cc2)CC1` (centres unmarked) [Compound 98, N-(4-((4-(ethoxymethyl)-4-phenethylazepan-1-yl)methyl)phenyl)acetamide]: over 10 mg/kg; for `CCOCC1(CCc2ccccc2)CN(CCc2ccc(NC(C)=O)cc2)C1` [Compound 99, N-(4-(2-(3-(ethoxymethyl)-3-phenethylazetidin-1-yl)ethyl)phenyl)acetamide]: over 10 mg/kg; for `C=CCCC1(COCC)CCN(Cc2ccc(NC(C)=O)cc2)CC1` [Compound 100, N-(4-((4-(but-3-enyl)-4-(ethoxymethyl)piperidin-1-yl)methyl)phenyl)acetamide]: over 10 mg/kg.
For the compound `CCOCC1(CCC2CC2)CCN(Cc2ccc(NC(C)=O)cc2)CC1` [Compound 101, N-(4-((4-(2-cyclopropylethyl)-4-(ethoxymethyl)piperidin-1-yl)methyl)phenyl)acetamide], the ED50 is over 10 mg/kg.
Then `CCOCC1(CCc2cccs2)CCN(Cc2ccc(NC(C)=O)cc2)CC1.Cl` [Compound 102, N-(4-((4-(ethoxymethyl)-4-(2-(thiophen-2-yl)ethyl)piperidin-1-yl)methyl)phenyl)acetamide HCl], with under 10 mg/kg; and `CCOCC1(CCc2nccs2)CCN(Cc2ccc(NC(C)=O)cc2)CC1.Cl` [Compound 103, N-(4-((4-(ethoxymethyl)-4-(2-(thiazol-2-yl)ethyl)piperidin-1-yl)methyl)phenyl)acetamide HCl], with over 10 mg/kg; and `CCOCC1(CCc2ccc(F)cc2)CCN(Cc2ccc(NC(C)=O)cc2)CC1` [Compound 104, N-(4-((4-(ethoxymethyl)-4-(4-fluoro-phenethyl)piperidin-1-yl)methyl)phenyl)acetamide], with over 10 mg/kg.
Then `CCOCC1(CCc2ccc(O)cc2)CCN(Cc2ccc(NC(C)=O)cc2)CC1.Cl` [Compound 105, N-(4-((4-(ethoxymethyl)-4-(4-hydroxy-phenethyl)piperidin-1-yl)methyl)phenyl)acetamide HCl], with over 10 mg/kg; and `CCOCC1(CCc2ccc(OC)cc2)CCN(Cc2ccc(NC(C)=O)cc2)CC1.Cl` [Compound 106, N-(4-((4-(ethoxymethyl)-4-(4-methoxy-phenethyl)piperidin-1-yl)methyl)phenyl)acetamide HCl], with over 10 mg/kg.
The same measure for `CC(=O)Nc1ccc(CN2CCC(CCc3ccccc3)(COC(F)F)CC2)cc1` [Compound 107, N-(4-((4-((difluoro-methoxy)methyl)-4-phenethylpiperidin-1-yl)methyl)phenyl)acetamide]: over 10 mg/kg.
On to `CCOCC1(CCc2ccccc2)CCN(Cc2ccc3[nH]c(=O)[nH]c3c2)CC1` [Compound 108, 5-((4-(ethoxymethyl)-4-phenethylpiperidin-1-yl)methyl)-1H-benzo[d]imidazol-2(3H)-one], for which the ED50 was over 10 mg/kg.
As to `CCOCC1(CCc2ccccc2)CCN(Cc2ccc3c(c2)CC(=O)N3)CC1` [Compound 109, 5-((4-(ethoxymethyl)-4-phenethylpiperidin-1-yl)methyl)indolin-2-one], the ED50 was over 10 mg/kg.
Then `CCOCC1(CCc2ccccc2)CCN(Cc2ccc3[nH]ccc3c2)CC1` [Compound 110, 5-((4-(ethoxymethyl)-4-phenethylpiperidin-1-yl)methyl)-1H-indole], with over 10 mg/kg.
Take `CCOCC1(CCc2ccccc2)CCN(Cc2ccc3[nH]c(=O)oc3c2)CC1` [Compound 111, 6-((4-(ethoxymethyl)-4-phenethylpiperidin-1-yl)methyl)benzo[d]oxazol-2(3H)-one]: the ED50 was over 10 mg/kg.
The same measure for `CCOCC1(CCc2ccccc2)CCN(Cc2ccc3[nH]cnc3c2)CC1` [Compound 112, 5-((4-(ethoxymethyl)-4-phenethylpiperidin-1-yl)methyl)-1H-benzo[d]imidazole]: over 10 mg/kg; for `CC(=O)Nc1ccc(CN2CCC(CCc3ccccc3)(COC3CCCC3)CC2)cc1` [Compound 113, N-(4-((4-(cyclopentyloxy-methyl)-4-phenethylpiperidin-1-yl)methyl)phenyl)acetamide]: over 10 mg/kg.
The same measure for `CC(=O)Nc1ccc(CN2CCC(CCc3ccccc3)(COc3ccccc3)CC2)cc1` [Compound 114, N-(4-((4-phenethyl-4-(phenoxy-methyl)piperidin-1-yl)methyl)phenyl)acet-amide]: over 10 mg/kg.
Then `CCOCC1(CCc2ccccc2)CCN(Cc2ccc(NC(=O)C(F)(F)F)cc2)CC1` [Compound 115, N-(4-((4-(ethoxymethyl)-4-phenethylpiperidin-1-yl)methyl)phenyl)-2,2,2-trifluoroacetamide], with over 10 mg/kg.

Source of the values: US11584765B2 (priority 2017, dated 2023).
